From patent US4962224A, “N-naphthoylglycines as aldose reductase inhibitors” (American Home Products Corporation, priority 1989, dated 1990) come the findings set out here.

The target in one test is T1, aldose reductase (Bos taurus, UniProt P16116).
T1 construct: preparation of the enzyme from bovine lens; from tissue; host or cells: bovine lens
As to the kind of experiment: aldose reductase inhibiting effects in vitro (Table I, IN VITRO). The class given is biochemical, bovine (lens). The following applies: read-out: % Inhibition IN VITRO; for inhibition at 10 µM: 10^-5 M; for inhibition at 1 µM: 10^-6 M. An excerpt:
In the present case the procedure of Hayman and Kinoshita was modified in that the final chromatography step was omitted in the preparation of the enzyme from bovine lens. The results are tabulated in Table I under the heading IN VITRO.

Test [1] concerns Sciatic Nerve Polyol Accumulation. Put plainly: Two-Week Streptozocin - Diabetic Rat Model, lowering of sciatic nerve polyol accumulation. The class given is in vivo, rat (Sprague-Dawley). The conditions noted are these: gavage, 14 days, STZ diabetic rats. An excerpt: A second in vivo model examined the effect of the compounds of the present invention on sorbitol accumulation in the tissues of 14-day streptozocin (STZ) (Upjohn) diabetic rats.
In each of the studies male Sprague-Dawley rats from Charles River Labs, Kingston, N.Y., weighing 200 to 250 g, were used. The animals were weighed and observed for 5 days prior to the start of the study.
In each study the rats were randomly assigned by weight into groups of 15 animals except for group I which contained 8 animals. The groups were treated as follows:
Group II: STZ, 110 mg/kg i.p.
Group IV: STZ, 110 mg/kg i.p. followed by various doses of a compound of the present invention given by gavage for 14 days, beginning on the day of induction of diabetes.
Following an overnight fast (water ad lib) the animals in groups II-IV were given by i.p. injection 110 mg STZ per kg body weight. The STZ was dissolved in cold citric acid, 0.03M, pH 4.5 and injected within 5 minutes of being dissolved. Control rats (group I) were injected with buffer only.
Two days after STZ injection plasma glucose levels (from the tail vein) were determined following a 4 hour fast. Excluded from the study were animals whose plasma glucose was below 300 mg/dl.
On the morning of the 14th day following STZ injection the animals were fasted 4 hours prior to sacrificing by decapitation. The blood was collected into heparin containing tubes and placed on ice. Both lenses and sciatic nerves were removed immediately, weighed, frozen, and stored at -20° C. until analyzed for sorbitol. The RBCs were collected by centrifugation, the plasma was removed and the cells were washed once with 10 volumes of cold saline. The washed packed RBCs were divided into 1 mL aliquots, extracted with cold perchloric acid and the acid extracts were stored at -20° C. until analyzed for sorbitol.

The next test has as its system dulcitol accumulation. Put plainly: lowering of dulcitol (galactitol) accumulation in tissues of galactosemic rats (Table I, IN VIVO). More on the design: species or system rat (Sprague-Dawley). The conditions noted are these: for % Lowering dulcitol accumulation IN VIVO, D: diaphragm; for % Lowering dulcitol accumulation IN VIVO, D / % Lowering dulcitol accumulation IN VIVO, L: galactosemic rats, 4 days; for % Lowering dulcitol accumulation IN VIVO, L: lens. An excerpt:
Such experiments are exemplified hereinbelow after the listing of the following general comments pertaining to these experiments:
(a) Four or more groups of six male rats, […], Sprague-Dawley strain, were used. The first group, the control group, was fed a mixture of laboratory chow (rodent Laboratory Chow, Purina) and […] at 20% (w/w %) concentration. […] The test compound was either admixed to the diet or administered by gavage. In experiments involving compound administration in the diet, the average dose administered was calculated from the actual food intake of the animals in each group. The concentration of galactose in the diet of the treated groups was the same as that for the untreated galactosemic group.
(b) After four days, the animals were killed by decapitation. The eyeballs were removed and punctured with a razor blade; the freed lenses were rolled gently on filter paper and weighed. The sciatic nerves were dissected as completely as possible and weighed. Both tissues when frozen can be kept up to two weeks before being analyzed for galactitol.
Only two minor reagent changes were made: (a) the rinsing mixture was an aqueous 5% (w/v) trichloroacetic acid solution and (b) the stock solution was prepared by dissolving 25 mg of dulcitol in 100 mL of an aqueous trichloroacetic acid solution. [N.B.: For each experiment the average value found in the tissue from rats fed the glucose diet was subtracted from the individual values found in the corresponding tissue in galactose-fed rats to obtain the amount of polyol accumulated.]
The figures under L, N, and D represent the percentage decrease of galactitol accumulation in the tissues of the lens, sciatic nerve, and diaphragm, respectively, for treated rats as compared to untreated rats.

“And” between values parts separate entries of the source, which are not always exact repeats. Identical values can stand only once.

One may read the inhibition as the change of the read-out against control, counted positive when it falls. In the case of `COc1ccc2c(C(=O)N(C)CC(N)=O)c(F)ccc2c1C(F)(F)F` [Example 1, N-[(Aminocarbonyl)methyl]-2-fluoro-6-methoxy-N-methyl-5-(trifluoromethyl)-1-naphthalenecarboxamide], the inhibition at 10 µM at aldose reductase came to 1%. The inhibition at 1 µM on aldose reductase was determined as 0%. In addition, the “% Lowering of Sciatic Nerve Polyol Accumulation, Fructose” value in test [1] (3 mg/kg) was found to be 69%; in test [1] (6 mg/kg), 87%; in test [1] (9 mg/kg) it was 94%; in test [1] (12 mg/kg) it was 98%; in test [1] (20 mg/kg), 105%. Also, the “% Lowering of Sciatic Nerve Polyol Accumulation, Sorbital” value is given as 50% in test [1] (3 mg/kg); 77% in test [1] (6 mg/kg); 79% in test [1] (9 mg/kg); 78% in test [1] (12 mg/kg); 84% in test [1] (20 mg/kg). In addition, the “results in the sciatic nerve compared with tolrestat” value in the test on dulcitol accumulation (10 mg/kg/day versus tolrestat at 9 mg/kg/day, sciatic nerve) is “comparable results”. Also, the “% Lowering dulcitol accumulation IN VIVO, D” value in the test with dulcitol accumulation (5 mg/kg) is 32%; in the test on dulcitol accumulation (10 mg/kg), 53% and 58%; in the test with dulcitol accumulation (12 mg/kg) it was 52%; with dulcitol accumulation (14 mg/kg), 62%; with dulcitol accumulation (15 mg/kg), 57%; with dulcitol accumulation (19 mg/kg), 63%. Also, the “% Lowering dulcitol accumulation IN VIVO, D” value in the test with dulcitol accumulation (24 mg/kg) is 75%. The “% Lowering dulcitol accumulation IN VIVO, L” value in the test with dulcitol accumulation (5 mg/kg), in the test on dulcitol accumulation (10 mg/kg), in the test with dulcitol accumulation (12 mg/kg), in the test with dulcitol accumulation (14 mg/kg), in the test on dulcitol accumulation (15 mg/kg) and with dulcitol accumulation (19 mg/kg) was “N.S” throughout. The “% Lowering dulcitol accumulation IN VIVO, L” value in the test with dulcitol accumulation (24 mg/kg) was “N.S”.

As to `COc1ccc2c(C(=O)N(C)CC(=O)O)c(Br)ccc2c1C(F)(F)F` [Example 9, N-[[2-Bromo-6-methoxy-5-(trifluoromethyl)-1-naphthalenyl]carbonyl]-N-methylglycine], on aldose reductase, the inhibition at 10 µM stood at 95% and the inhibition at 1 µM turned out to be 90%. For the same compound, the inhibition at 0.1 µM at aldose reductase (10^-7 M) stood at 63%. In the test with dulcitol accumulation (97 mg/kg), the “% Lowering dulcitol accumulation IN VIVO, D” value was found to be 84% and the “% Lowering dulcitol accumulation IN VIVO, L” value was found to be 8%.

Take `COc1ccc2c(C(=S)N(C)CC(=O)O)cccc2c1C(F)(F)F` [tolrestat, N-[[6-methoxy-5-(trifluoromethyl)-1-naphthalenyl]thioxomethyl]-N-methylglycine, reference compound]: in test [1] (6 mg/kg), the “% Lowering of Sciatic Nerve Polyol Accumulation, Fructose” value was 58% and the “% Lowering of Sciatic Nerve Polyol Accumulation, Sorbital” value was 53%. Besides, the “% Lowering dulcitol accumulation IN VIVO, L” value in the test with dulcitol accumulation (9 mg/kg) is listed as “N.S”.
